Test in all cases: relative viability (nuclei count vs DMSO), 5 days (fraction); higher = more cells survive
Compound in experiment [1]: O[C@@H](COc1cccc2ncccc12)CN1CCN([C@@H]2c3ccccc3[C@@H]3[C@H](c4ccccc42)C3(F)F)CC1 [Zosuquidar] + CC1(C)CCC(c2ccc(Cl)cc2)=C(CN2CCN(c3ccc(C(=O)NS(=O)(=O)c4ccc(N[C@H](CCN5CCOCC5)CSc5ccccc5)c(S(=O)(=O)C(F)(F)F)c4)cc3)CC2)C1 [Navitoclax] (partner 0.5 µM)
The method in brief: (§1)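 Lung cancer cell lines in 1536-well plates were dosed by pin tool the day after seeding, either with one drug alone or with a fixed anchor-drug dose plus five library-drug doses (not always all listed) in √10 steps. After 5 days, cells were fixed and their nuclei stained in one step (final 0.05% Triton X-100, 1% formaldehyde, 1 ug/ml Hoechst), then counted on 4× images. Relative viability is the nuclei count in treated wells divided by that in vehicle wells. Values are medians of duplicate plates.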

Compound in experiment [2]: C1=CC(=CC=C1NC(=S)NNC2=C(C=C(C=C2[N+](=O)[O-])C(F)(F)F)[N+](=O)[O-])F [Kobe2602] + Cc1nc(NC(=O)N2CCC[C@H]2C(N)=O)sc1-c1ccnc(C(C)(C)C(F)(F)F)c1 [Alpelisib] (partner 2 µM)
The method in brief:
as §1

Compound in experiment [3]: COc1cc2nccc(Oc3ccc(NC(=O)C4(C(=O)Nc5ccc(F)cc5)CC4)cc3)c2cc1OC [Cabozantinib] + Nc1nc2[nH]cc(CCc3ccc(C(=O)N[C@@H](CCC(=O)O)C(=O)O)cc3)c2c(=O)[nH]1 [Pemetrexed] (partner 0.2 µM)
The method in brief:
as §1

Compound in experiment [4]: COc1cc2nccc(Oc3ccc(NC(=O)C4(C(=O)Nc5ccc(F)cc5)CC4)cc3)c2cc1OC [Cabozantinib] + C[C@@H](Oc1cc(-c2cnn(C3CCNCC3)c2)cnc1N)c1c(Cl)ccc(F)c1Cl [Crizotinib] (partner 1 µM)
The method in brief: as §1

For the cell line UMC-11, the relative viability in experiment [1] (first compound 0.01 µM) was determined as 0.323; in experiment [1] (first compound 0.03162 µM), 0.294; in experiment [1] (first compound 0.1 µM) it was 0.341; in experiment [1] (first compound 0.3162 µM) it was 0.339; in experiment [1] (first compound 1 µM), 0.292; in experiment [2] (first compound 0.2 µM), 1. The relative viability in experiment [2] (first compound 0.6325 µM) worked out at 1.03; in experiment [2] (first compound 2 µM), 0.954; in experiment [2] (first compound 6.325 µM), 0.94; in experiment [2] (first compound 20 µM), 0.976; in experiment [3] (first compound 0.02 µM), 0.802; in experiment [3] (first compound 0.06325 µM) it was 0.879. The relative viability worked out at 0.782 in experiment [3] (first compound 0.2 µM); 0.837 in experiment [3] (first compound 0.6325 µM); 0.747 in experiment [3] (first compound 2 µM); 0.609 in experiment [4] (first compound 0.02 µM); 0.592 in experiment [4] (first compound 0.06325 µM); 0.717 in experiment [4] (first compound 0.2 µM). Moreover, the relative viability in experiment [4] (first compound 0.6325 µM) amounted to 0.668; in experiment [4] (first compound 2 µM), 0.578.

The values are drawn from the supplement of paper PMC10307832.
